# Data from patent US20050250677A1, “Glycopeptide antibiotic derivatives” (priority 2002, published 2005).
# Read-outs that look alike come from different tables or passages of the source.
# Key:
# CMV = test: Anti-CMV assay: virus-induced cytopathicity in HEL cell cultures
# VZV (wild-type strains) = test: Anti-VZV assay (wild-type strains): virus-induced cytopathicity in HEL cell cultures; assay type: cell-based, varicella-zoster virus
# HEL cells [1] = system: HEL cells
# HEL cells [2] = settings: read-out: CC50 (HEL), HEL cells
# HIV-1 (IIIB) = test: Inhibition of HIV-1 (IIIB)-induced cytopathicity (giant cell formation) in CEM cells; assay type: cell-based; settings: read-out: EC50 HIV-1 (concentration required to inhibit HIV-induced giant cell formation by 50%); HIV-1, CEM cell cultures
# Method: (§1) A variety of glycopeptide antibiotic derivatives of vancomycin, eremomycin and teicoplanin including their aglycon derivatives were evaluated for their inhibitory activity against HIV-1 (IIIB) and HIV-2(ROD) in CEM cell cultures.
# human lymphocyte CEM = test: Cytostatic activity assay, CEM cells; assay type: cell-based; settings: read-out: IC50 CEM (compound concentration required to inhibit tumor cell proliferation by 50%)
# HIV-2(ROD) = test: Inhibition of HIV-2 (ROD)-induced cytopathicity (giant cell formation) in CEM cells; assay type: cell-based; settings: read-out: EC50 HIV-2 (concentration required to inhibit HIV-induced giant cell formation by 50%); HIV-2, CEM cell cultures
# Method: as §1
# [3] = system: human lymphocyte Molt4/clone 8; test: Cytostatic activity assay, Molt4/clone 8 cells; assay type: cell-based; settings: read-out: IC50 Molt4/C8 (compound concentration required to inhibit tumor cell proliferation by 50%)
# murine leukemia L1210 = test: Cytostatic activity assay, L1210 cells; assay type: cell-based; settings: read-out: IC50 L1210 (compound concentration required to inhibit tumor cell proliferation by 50%)
# Vero cells = settings: read-out: CC50 Vero
# [4] = system: SARS virus (strain Frankfurt-1); test: microbe, parasite or virus in culture; assay type: cell-based, human corona (SARS) virus; settings: SARS virus in Vero cells; read-out: EC50 SARS virus
# FCV = test: Feline corona virus assay in Feline Crandel kidney cells (MTS); assay type: cell-based; settings: for EC50: FCV in FCK cells, read-out: EC50 FCV
# Method: Feline Crandel kidney cells were seeded in 96-well microtiter plates at 24,000 cells/well. Then, 24 hrs later, an appropriate inoculum of FCV is added together with 5-fold dilutions of the test compounds. After 4 days, a MTS/PMS solution was added to each well. Following a 90 min incubation period at 37° C., the optical density of the wells was read at 498 nm in a microplate reader.
# [5] = read-out: EC50 CMV AD-169, CMV strain AD-169, HEL cell cultures
# [6] = read-out: EC50 CMV Davis, CMV strain Davis, HEL cell cultures
# [7] = VZV strain OKA, HEL cell cultures, read-out: EC50 VZV (OKA)
# [8] = VZV strain YS, HEL cell cultures, read-out: EC50 VZV (YS)
Compound,EC50 (CMV; [5]) [µM],EC50 (CMV; [6]) [µM],EC50 (VZV (wild-type strains); [7]) [µM],EC50 (VZV (wild-type strains); [8]) [µM],MTC (HEL) (HEL cells [1]; anti-CMV table),MTC (HEL) (HEL cells [1]; anti-VZV table),CC50 (HEL cells [2]; anti-CMV table) [µM],CC50 (HEL cells [2]; anti-VZV table) [µM],EC50 (HIV-1 (IIIB)) [µM],IC50 (human lymphocyte CEM) [µM],EC50 (HIV-2(ROD)) [µM],IC50 [3] [µM],IC50 (murine leukemia L1210) [µM],"CC50 (FCK cells; read-out: CC50 FCK, FCK cells) [µM]",CC50 (Vero cells) [µM],EC50 [4] [µM],EC50 (FCV) [µM],further results
CNC(CC(C)C)C(=O)NC1C(=O)NC(CC(N)=O)C(=O)NC2C(=O)NC3C(=O)NC(C(=O)NC(C(=O)O)c4cc(O)cc(O)c4-c4cc3ccc4O)C(O)c3ccc(c(Cl)c3)Oc3cc2cc(c3OC2OC(CO)C(O)C(O)C2OC2CC(C)(NCc3ccc(-c4ccc(Cl)cc4)cc3)C(O)C(C)O2)Oc2ccc(cc2Cl)C1O (stereo not shown) [Compound 59],> 5,16,0.87,0.89,5 to 20 µM,5 to 20 µM,> 50,> 50,,,,,,,,,,anti-CMV activity (CMV): anti-CMV activity; EC50 (VZV (wild-type strains); read-out: EC50 against VZV): 0.87 to 0.89 µM
CCCCCCCCCNCc1c(O)cc2c(c1O)-c1cc(ccc1O)C1NC(=O)C3NC(=O)C4NC(=O)C(Cc5ccc(c(Cl)c5)Oc5cc3cc(c5O)Oc3ccc(cc3Cl)C(O)C(NC1=O)C(=O)NC2C(=O)NCCCN(C)C)NC(=O)C(N)c1ccc(O)c(c1)Oc1cc(O)cc4c1 (stereo not shown) [Compound 21],8,,1.3,2,5 to 50 µM,5 to 50 µM,107,107,2.2,179 ± 1,6.5 ± 0.7,136 ± 33,43 ± 6,,,,,anti-CMV activity (CMV): anti-CMV activity
CNC(CC(C)C)C(=O)NC1C(=O)NC(CC(N)=O)C(=O)NC2C(=O)NC3C(=O)NC(C(=O)NC(C(=O)N(C(=O)NC4CCCCC4)C4CCCCC4)c4cc(O)cc(O)c4-c4cc3ccc4O)C(O)c3ccc(cc3)Oc3cc2cc(c3O)Oc2ccc(cc2Cl)C1O (stereo not shown) [Compound 102],,,,,,,,,7.5 ± 4.8,> 250,32.5 ± 3.5,> 250,> 250,> 100,> 100,68,,
COC(=O)C1NC(=O)C2NC(=O)C(NC(=O)C(N)c3cc(Oc4ccc(CC(NC(=O)OCc5ccccc5)C(=O)O)cc4Cl)c(O)c(c3)Oc3ccc(cc3Cl)C2O)c2ccc(O)c(c2)-c2c1cc(O)c(CNC1C3CC4CC(C3)CC1C4)c2O (stereo not shown) [Compound 54],,,,,,,,,17 ± 3.5,> 250,37 ± 18,> 250,181 ± 4,,> 100,47,19,CC50 (FCK cells): > 50 µM
NC1C(=O)NC2Cc3ccc(c(Cl)c3)Oc3cc4cc(c3O)Oc3ccc(cc3Cl)C(O)C3NC(=O)C(NC(=O)C4NC(=O)C(NC2=O)c2cc(O)cc(c2)Oc2cc1ccc2O)c1ccc(O)c(c1)-c1c(O)cc(O)cc1C(C(=O)NC1CC2CCC1C2)NC3=O (stereo not shown) [Compound 162],,,,,,,,,4.5,,11,,,≥ 100,> 100,22,4.7,
CCCCCCCCCC[N+](C)(C)CCCNC(=O)C1NC(=O)C2NC(=O)C(NC(=O)C3NC(=O)C4NC(=O)C(Cc5ccc(c(Cl)c5)Oc5cc3cc(c5O)Oc3ccc(cc3Cl)C2O)NC(=O)C(N)c2ccc(O)c(c2)Oc2cc(O)cc4c2)c2ccc(O)c(c2)-c2c1cc(O)c(CN1CC[N+](C)(CCCCCCCCCC)CC1)c2O (stereo not shown) [Compound 39],> 2,4,0.9,0.81,≧5 μM,≧5 μM,170,170,,14 ± 2,1.3 ± 0.21,14 ± 3,7.3 ± 0.3,,,,,
CCCCCCCCCCNC1(C)CC(OC2C(Oc3c4cc5cc3Oc3ccc(cc3Cl)C(O)C(NC(=O)C(CC(C)C)NC)C(=O)NC(CC(N)=O)C(=O)NC5C(=O)NC3C(=O)NC(C(=O)NC(C(=O)O)c5cc(O)cc(O)c5-c5cc3ccc5O)C(OC3CC(C)(N)C(O)C(C)O3)c3ccc(cc3)O4)OC(CO)C(O)C2O)OC(C)C1O (stereo not shown) [Compound 68],20,> 20,> 2,0.7,5 to 50 µM,5 to 50 µM,> 200,> 200,,,,,,,,,,
CCCCCCCCCCCCNCc1c(O)cc2c(c1O)-c1cc(ccc1O)C1NC(=O)C3NC(=O)C(CC(N)=O)NC(=O)C(NC(=O)C(CC(C)C)NC)C(O)c4ccc(c(Cl)c4)Oc4cc3cc(c4OC3OC(CO)C(O)C(O)C3OC3CC(C)(N)C(O)C(C)O3)Oc3ccc(cc3)C(OC3CC(C)(N)C(O)C(C)O3)C(NC1=O)C(=O)NC2C(=O)O (stereo not shown) [Compound 64],,,,,,,,,,,,,,75,> 100,31,8.2,activity against FCV (FCV): active
CCCCCCCCCC[N+](C)(C)CCCNC(=O)C1NC(=O)C2NC(=O)C(NC(=O)C3NC(=O)C4NC(=O)C(Cc5ccc(c(Cl)c5)Oc5cc3cc(c5O)Oc3ccc(cc3Cl)C2O)NC(=O)C(N)c2ccc(O)c(c2)Oc2cc(O)cc4c2)c2ccc(O)c(c2)-c2c(O)cc(O)cc21 (stereo not shown) [Compound 27],≥ 5,3.5,1,0.8,≧2-50 μM,≧2-50 μM,> 200,> 200,1.5 ± 0.42,18 ± 3,2.3 ± 0.21,28 ± 0.4,9.1 ± 0.9,,,,,anti-CMV activity (CMV): anti-CMV activity
O=C1NC2C(=O)NC3C(=O)NC4C(=O)NC(C(=O)NC(C(=O)O)c5cc(O)cc(O)c5-c5cc4ccc5O)C(O)c4ccc(c(Cl)c4)Oc4cc3cc(c4O)Oc3ccc(cc3Cl)CC1NC(=O)C(NCc1ccc(-c3ccccc3)cc1)c1ccc(O)c(c1)Oc1cc(O)cc2c1 (stereo not shown) [Compound 122],> 20,,1,1,20 to 50 µM,20 to 50 µM,> 50,> 50,,,,,,,,,,
CCCCCCCCCC[N+](C)(C)CCCNCc1c(O)cc2c(c1O)-c1cc(ccc1O)C1NC(=O)C3NC(=O)C4NC(=O)C(Cc5ccc(c(Cl)c5)Oc5cc3cc(c5O)Oc3ccc(cc3Cl)C(O)C(NC1=O)C(=O)NC2C(=O)NCCC[N+](C)(C)CCCCCCCCCC)NC(=O)C(N)c1ccc(O)c(c1)Oc1cc(O)cc4c1 (stereo not shown) [Compound 37],> 5,3.5,1.5,> 2,≧2-20 μM,≧2-20 μM,43,43,1.6 ± 0.58,9.4 ± 1.9,4.3 ± 0.58,19 ± 12,12 ± 2,,,,,
NC1C(=O)NC2Cc3ccc(c(Cl)c3)Oc3cc4cc(c3O)Oc3ccc(cc3Cl)C(O)C3NC(=O)C(NC(=O)C4NC(=O)C(NC2=O)c2cc(O)cc(c2)Oc2cc1ccc2O)c1ccc(O)c(c1)-c1c(O)cc(O)cc1C(C(=O)N1CCN(Cc2ccc(C=Cc4ccccc4)cc2)CC1)NC3=O (stereo not shown) [Compound 127],10,> 5,0.7,0.3,≧5-20 μM,≧5-20 μM,44,44,,,,,,,,,,
NC1C(=O)NC2Cc3ccc(c(Cl)c3)Oc3cc4cc(c3O)Oc3ccc(cc3Cl)C(O)C3NC(=O)C(NC(=O)C4NC(=O)C(NC2=O)c2cc(O)cc(c2)Oc2cc1ccc2O)c1ccc(O)c(c1)-c1c(O)cc(O)cc1C(C(=O)O)NC3=O (stereo not shown) [Compound 159],,,,,,,,,,,,,,85,> 100,28,9.9,
NC1C(=O)NC2Cc3ccc(c(Cl)c3)Oc3cc4cc(c3O)Oc3ccc(cc3Cl)C(O)C3NC(=O)C(NC(=O)C4NC(=O)C(NC2=O)c2cc(O)cc(c2)Oc2cc1ccc2O)c1ccc(O)c(c1)-c1c(O)cc(O)cc1C(C(=O)N1CCN(Cc2ccc4ccccc4c2)CC1)NC3=O (stereo not shown) [Compound 25],30,,1,0.6,20 to 200 µM,20 to 200 µM,> 50,> 50,2.1 ± 1.3,113 ± 28,5,47 ± 4,175 ± 44,,,,,anti-CMV activity (CMV): anti-CMV activity
O=C(NC1C(=O)NC2Cc3ccc(c(Cl)c3)Oc3cc4cc(c3O)Oc3ccc(cc3Cl)C(O)C3NC(=O)C(NC(=O)C4NC(=O)C(NC2=O)c2cc(O)cc(c2)Oc2cc1ccc2O)c1ccc(O)c(c1)-c1c(O)cc(O)cc1C(C(=O)O)NC3=O)C(=O)c1c[nH]c2ccccc12 (stereo not shown) [Compound 163],,,,,,,,,10,,15,,,63,> 100,26,2.2,
